Assay results as given in patent US6818782B2, “Enantiomeric compounds for treatment of cardiac arrhythmias and methods of use” (ARYX Therapeutics, priority 1999, dated 2004).

Experiments:
[1] = system: rats challenged by an arrhythmogenic combination of benzene vapors and adrenaline; assay: Anti-arrhythmic activity in anesthetized rats (benzene/adrenaline challenge: VPB and tachycardia); assay type: in vivo, rat; details: for Protection against adrenaline-induced tachycardia (heart rate), potency and duration: administered from time 0 to time 120 minutes; for Heart rate (beats/minute) / Inhibition of tachycardia / Number of VPB / Inhibition of VPB: isolated enantiomer compared to respective racemate; for Inhibition of VPB: 4 mg/kg i.v. then 12 mg/kg/h for 2 hours; for Anti-VPB activity at the end of the washout period: time 180 min; for Inhibition of formation of ventricular premature beats during drug administration: whole period of drug administration (time 0 to 120 min), 4 mg/kg i.v. then 12 mg/kg/h
Description: (§1) Anti-Arrhythmic Activity in Anesthetized Rats
(§2) Male Sprague-Dawley rats with body weights of 410±30 g (Harlan Sprague Dawley Inc., Indianapolis, Ind.), were anesthetized with sodium pentobarbital (50 mg/kg i.p.—Butler Co., Columbus, Ohio). The skin from the neck area was removed and the jugular veins on both sides were cleared of connective tissue. Both jugular veins and the left carotid artery were isolated, and the latter tied up cranially with a surgical silk (ETHICON 4-0, Ethicon Inc., Australia). A plastic catheter ([…] 19ga, Vecton Dickinson, Sandy, Utah), filled with a solution containing 10% sodium heparin (Elkins-Sinn Inc., Cherry Hill, N.J.) in normal saline (100 U/ml sodium heparin), was introduced into the artery and fixed with surgical silk.
(§3) The catheter was connected to a pressure transducer (OHMEDA P23-XL, Ohmeda Medical Devices Division Inc., Madison, Wis.), filled with the same heparinized 0.9% NaCl solution, to register beat-to-beat arterial pressure. Needle electrodes were inserted s.c., and together with the pressure transducer, were joined to a GOULD TA 2000 recorder. Leads II, aVF and intraarterial blood pressure were monitored simultaneously throughout the experiments and recorded at certain intervals at 50 and 200 mm/sec paper speed.
(§4) The surgery was completed with an incision on the trachea where a short plastic tubing was placed and the animal was connected to a rodent-model ventilator (HARVARD Model 683, Harvard Apparatus, Inc., Holliston, Mass.). The animals were ventilated in a controlled way, depending on their spontaneous breathing frequency (55-75/min).
(§5) Drug administrations were carried out through i.v. catheters (TERUMO 24 GA*¾″, Terumo Medical Corp., Elkton, Md.) inserted into both jugular veins. The left side was used for drug infusions by means of a syringe pump (SAGE INSTRUMENTS, Model 341B, Orion Res. Inc., Boston, Mass.), and the right side was used for adrenaline injections. The experiments were started after at least 15 minutes of stabilization. Benzene/adrenaline challenges were performed as follows: the respirator inlet was connected to a 50-ml bubbler half-full with benzene (Fisher Scientific, Fair Lawn, N.J.) so that the inspired air was saturated with benzene vapor. The animal was ventilated with benzene vapor for two minutes. The tidal volume was typically 1 ml/100 g of animal. During the last 30 seconds of benzene ventilation, 10 μg/kg adrenaline solution (in 0.9% NaCl) was injected into the right jugular vein. […] These arrhythmias could be elicited repeatedly. After three control VTs (at −30, −20 and −10 minutes), the test compounds were injected slowly during 30 seconds at a dose of 4 mg/kg i.v., immediately followed by a slow infusion of 12 mg/kg/h for 2 hours. The flow rate during the infusion period was 1 ml/h.
(§6) There were 5 rats per test compound and each animal served as its own control. The ability of the different drugs to suppress arrhythmias was tested against repeated benzene/adrenaline challenges at 5, 15, 30, 45, 60, 90, 120 (end of drug infusion), 135, 150, 165 and 180 minutes after the i.v. bolus injection. The amplitudes of the systolic arterial pressure and diastolic arterial pressure […] with the help of a pressure-amplitude calibration curve. Heart rate, number of ventricular complexes during the occurrence of VTs and VPBs, and certain ECG parameters (PR, QRS, QT durations and RR cycle lengths in msec) were also recorded and measured manually. At each time-point, 3-5 cycles were measured and the average values were entered into EXCEL Windows 97. The average and standard deviation for the five experimental animals per compound were calculated.

anesthetized rats = assay: EKG parameters (QT, QRS, PR) in anesthetized rats; assay type: in vivo, rat; details: for PR interval / QRS interval / QT interval: isolated enantiomer compared to respective racemate
Description: as §1, §2, §3, §4, §5, §6

| SMILES | Protection against adrenaline-induced tachycardia (heart rate), potency and duration [1] | Heart rate (beats/minute) ([1]; anesthetized rats) | Inhibition of tachycardia ([1]; anesthetized rats) | Number of VPB ([1]; anesthetized rats) | Inhibition of VPB ([1]; anesthetized rats) | Anti-VPB activity at the end of the washout period [1] | PR interval (anesthetized rats) | QRS interval (anesthetized rats) | QT interval (anesthetized rats) | Inhibition of formation of ventricular premature beats during drug administration [1] | Effect on PR segment of EKG (Class-IV activity), potency (anesthetized rats) | Effect on QT segment of EKG (Class-III properties), potency and duration (anesthetized rats) | Time at which anti-VPB activity is lost ([1]; infusion time 0 to 120 min) [min] | Anti-VPB activity relative to the other forms ([1]; racemate vs enantiomers, anesthetized rats) |
| --- | --- | --- | --- | --- | --- | --- | --- | --- | --- | --- | --- | --- | --- | --- |
| CC[C@H](C)OC(=O)Cc1oc2ccccc2c1C(=O)c1cc(I)c(OCCN(CC)CC)c(I)c1 [ATI-2042] | very good protection against this tachyarrhythmia | – | – | – | – | – | – | – | – | – | – | – | – | – |
| CCN(CC)CCOc1c(I)cc(C(=O)c2c(CC(=O)OC(C)C(C)C)oc3ccccc23)cc1I (stereo not shown) [ATI-2055] | inhibits the tachycardia | – | – | – | – | – | – | – | – | – | – | – | – | – |
| CC[C@@H](C)OC(=O)Cc1oc2ccccc2c1C(=O)c1cc(I)c(OCCN(CC)CC)c(I)c1 [Compound R-2042, (R)-sec-Butyl 2-[3-(3,5-diiodo-4-(2-diethylaminoethyloxy)benzoyl)]benzofuraneacetate] | – | lower | longer | lower | longer | completely inactive | shorter | no change | no change | – | – | – | – | – |
| CCN(CC)CCOc1c(I)cc(C(=O)c2c(CC(=O)O[C@H](C)C(C)C)oc3ccccc23)cc1I [Compound R-2055, (R)-(3-Methyl)-2butyl2-[3-(3,5-diiodo-4-(2-diethylaminoethyloxy)benzoyl)]benzofuraneacetate] | longer-lasting effect than S-2055 | lower | longer | lower | longer | still retained part of its activity | shorter | longer | no change | totally inhibited the formation of ventricular premature beats | – | – | – | – |
| CC[C@H](C)OC(=O)Cc1oc2ccccc2c1C(=O)c1cc(I)c(OCCN(CC)CC)c(I)c1 [Compound S-2042, (S)-sec-Butyl 2-[3-(3,5-diiodo-4-(2-diethylaminoethyloxy)benzoyl)]benzofurane-acetate] | more potent and longer acting then R-2042 | lower | longer | lower | longer | still retained part of its activity | longer | longer | longer | totally inhibited the formation of ventricular premature beats | much more potent than R-2042 and the racemate R,S-2042 | the most potent and the longest acting | – | – |
| CCN(CC)CCOc1c(I)cc(C(=O)c2c(CC(=O)O[C@@H](C)C(C)C)oc3ccccc23)cc1I [Compound S-2055, (S)-(3-Methyl)-2butyl2-[3-(3,5-diiodo-4-(2-diethylaminoethyloxy)benzoyl)]benzofuraneacetate] | – | lower | longer | lower | longer | completely inactive | shorter | longer | no change | – | – | – | ~40 | – |
| CC[C@H](C)OC(=O)Cc1oc2ccccc2c1C(=O)c1cc(I)c(OCCN(CC)CC)c(I)c1 [R,S-2042] | the least potent and shortest acting | – | – | – | – | – | – | – | – | – | – | – | – | even less active than either the R- or the S-isomer |
